melting point: 154.5 to 155.5 °C
SMILES: Cn1cc(C(=O)NCc2ccc(Cl)cc2)c(=O)c2cc(COCC[C@@H](O)c3ccccc3)sc21
